Reference: the OPERA property sets (Mansouri et al. 2018)

Conditions: for log10 BCF / log10 biotransformation half-life (days): fish

Row | SMILES | melting point [°C] | boiling point [°C] | other results
1 | O=[N+]([O-])c1ccc2ncccc2c1 | 154 |  | 
2 | Oc1c(Br)c(Br)c(Br)c(Br)c1Br | 230 |  | ready biodegradability: not readily biodegradable
3 | O=C(NCO)c1cccnc1 | 142 |  | 
4 | CNC(=O)ON=C(CSC)C(C)(C)C | 57 |  | log10 vapour pressure (mmHg): -3.77
5 | CC1=CC(=O)c2c(O)cccc2C1=O | 78.5 |  | 
6 | O=C[C@H](O)[C@@H](O)[C@H](O[C@@H]1O[C@H](CO)[C@@H](O)[C@H](O)[C@H]1O)[C@H](O)CO | 240 |  | 
7 | O=[N+]([O-])c1cccc(CCl)c1 | 46 |  | 
8 | CC1(C)COC1 |  | 80.6 | 
9 | CCCSc1ccc2[nH]c(NC(=O)OC)nc2c1 | 209 |  | 
10 | CC(C)CC(C)CC(O)CC(C)C (stereo unspecified) |  | 225 | 
11 | CCOc1ccc(F)cc1 | -8.5 | 173 | 
12 | CCCCCCCC(=O)OCCCCCC | -30.6 | 277 | 
13 | Cc1cc(C(C)(C)C)ccc1O | 27.5 | 237 | log10 vapour pressure (mmHg): -1.55
14 | NCC1CCCC(CN)C1 (stereo unspecified) |  | 220 | ready biodegradability: not readily biodegradable
15 | CC[N+](CC)(CCOc1ccc(C(C)(C)CC(C)(C)C)cc1)Cc1ccccc1.[Cl-] | 113 |  | 
16 | O=C1c2ccccc2C(=O)N1Cc1ccccc1 | 116 |  | 
17 | C=CC(Cl)Cl |  | 84.4 | log10 vapour pressure (mmHg): 1.85
18 | CN/C(=N\C#N)NCCSCc1nc[nH]c1C | 142 |  | 
19 | Clc1ccc2c(Cl)c(Cl)ccc2c1 |  |  | log10 Koa: 7.5
20 | CC(C)(C)C1CCCCC1O (stereo unspecified) | 45 |  | 
21 | Nc1cc2c3ccccc3ccc2c2ccccc12 | 210 |  | log10 Koc (L/kg): 5.21
22 | C[C@@H]1CC[C@@H](C)S1 | -89 | 142 | 
23 | CCc1cn([C@H]2C[C@H](O)[C@@H](CO)O2)c(=O)[nH]c1=O | 152 |  | 
24 | C=CCCCCCCC | -81.3 | 147 | log10 Koa: 3.83; log10 vapour pressure (mmHg): 0.732; ready biodegradability: not readily biodegradable; log10 BCF: 3.17; log10 biotransformation half-life (days): 0.52
25 | CCOP(=S)(OCC)Oc1cc(C)nc(N(CC)CC)n1 | 15 |  | log10 Koc (L/kg): 2.48; log10 vapour pressure (mmHg): -3.54

Row | SMILES | melting point [°C] | boiling point [°C] | other results
26 | O=CCCCCC=O | -8 |  | 
27 | CCNC(=O)OCC |  | 176 | 
28 | Nc1ccc(Cc2ccc(N)cc2)cc1 | 92.5 | 398 | log10 Koc (L/kg): 1.99; ready biodegradability: not readily biodegradable; log10 BCF: 1.18
29 | Brc1ccc2c(c1)Oc1ccccc1O2 | 90 |  | log10 vapour pressure (mmHg): -4.52
30 | CCC(C)(C)CC(C)(C)C |  | 154 | 
31 | O=C1CCC(c2ccccc2)O1 (stereo unspecified) | 36.5 | 306 | 
32 | ClCCC[Si](Cl)(Cl)Cl |  | 182 | 
33 | CCCCCC(=O)O[C@]1(C(C)=O)CC[C@H]2[C@@H]3CCC4=CC(=O)CC[C@@H]4[C@H]3CC[C@@]21C | 124 |  | 
34 | COc1ccn(C)c(=O)c1C#N | 202 |  | 
35 | CCOC(=O)C=C(C)C(=O)OCC |  | 228 | 
36 | CCCCCCCCCCCCCCCN | 37.3 | 308 | 
37 | CC1(C)C(C=C(Cl)Cl)C1C(=O)OCc1cccc(Oc2ccccc2)c1 (stereo unspecified) | 34 |  | log10 Koc (L/kg): 4.8; log10 vapour pressure (mmHg): -7.66
38 | Cc1ccc(N)c(Br)c1 | 26 | 240 | 
39 | CC1CCCC(C)C1O (stereo unspecified) | 32.5 | 176 | 
40 | CC(=O)Oc1cccc(O)c1 |  | 283 | 
41 | COc1ccccn1 |  | 142 | 
42 | C=CC[C@H](O)CCC |  | 152 | 
43 | CCCCCCCCCCCCCCCCOCC(O)CO (stereo unspecified) | 64 |  | 
44 | Cc1cc(C)cc(N)c1 | 9.8 | 220 | ready biodegradability: not readily biodegradable
45 | CCc1cccc(CC)c1 | -83.9 | 181 | log10 biodegradation half-life (days): 0.845; log10 vapour pressure (mmHg): 0.0531; ready biodegradability: not readily biodegradable; log10 BCF: 2.73; log10 biotransformation half-life (days): 0.09
46 | CC(C)OC(=O)C1(S(=O)(=O)c2ccc([N+](=O)[O-])cc2)CC1 | 123 |  | 
47 | Cc1cc(N)ncn1 | 197 |  | 
48 | CC1CCCC(C)C1 (stereo unspecified) |  | 122 | log10 vapour pressure (mmHg): 1.3
49 | CC(C)CCOCc1ccccc1 |  | 237 | 
50 | CCN1CCCC1CNC(=O)c1cc(S(=O)(=O)CC)c(N)cc1OC (stereo unspecified) | 126 |  | 

Row | SMILES | melting point [°C] | boiling point [°C] | other results
51 | CCN(CCO)CCCC(C)Nc1ccnc2cc(Cl)ccc12 (stereo unspecified) | 90 |  | 
52 | O=C(Nc1ccc(O)cc1)c1ccccc1O | 179 |  | 
53 | [2H]C([2H])([2H])C([2H])([2H])C([2H])([2H])C([2H])([2H])C([2H])([2H])C([2H])([2H])C([2H])([2H])C([2H])([2H])C([2H])([2H])C([2H])([2H])C([2H])([2H])C([2H])([2H])C([2H])([2H])C([2H])([2H])C([2H])([2H])C([2H])([2H])[2H] |  |  | log10 biotransformation half-life (days): 1.47
54 | CCc1ccc(Cl)cc1 | -62.6 | 184 | 
55 | O=C1CCC(c2ccccc2)CC1 | 79.5 |  | 
56 | CC(C)=CCC[C@@H](C)[C@H]1CC[C@H]2[C@@H]3CC=C4C[C@@H](O)CC[C@]4(C)[C@H]3CC[C@]12C | 122 |  | 
57 | N[C@@H](CCC(=O)O)C(=O)O |  |  | log10 vapour pressure (mmHg): -7.77; ready biodegradability: readily biodegradable
58 | Brc1cc(Br)c(Br)c(Oc2c(Br)c(Br)c(Br)c(Br)c2Br)c1Br |  |  | log10 BCF: 5.57
59 | CCOC(=O)COC |  | 142 | 
60 | S=C=NCc1ccccc1 |  | 243 | log10 vapour pressure (mmHg): -1.81
61 | C[C@]12CC[C@@H](O)C[C@@H]1CC[C@@H]1[C@@H]2CC[C@]2(C)C(=O)CC[C@@H]12 | 182 |  | 
62 | Nc1c(Br)cc(Br)c2c1C(=O)c1ccccc1C2=O | 221 |  | 
63 | O=C1NCc2ccccc21 | 151 | 338 | 
64 | CC12CCCC1C1CCC3CCCCC3(C)C1CC2 (stereo unspecified) |  |  | log10 biotransformation half-life (days): 1.67
65 | Nc1ccccc1Br | 32 | 229 | 
66 | CCOC(=O)c1cnc2cc(OCC(C)C)c(OCC(C)C)cc2c1O | 290 |  | 
67 | CC(=O)c1ccc(O)cc1O | 146 |  | 
68 | CCOC(=O)C(C(C)=O)C(C)=O |  | 210 | 
69 | COc1ccc2c(c1)C(=O)N(CCc1ccc(S(=O)(=O)NC(=O)NC3CCCCC3)cc1)C(=O)C2(C)C | 181 |  | 
70 | CO[C@H]1C=C[C@H](OC)O1 |  | 161 | 
71 | CCCC(=O)N(CC)CC |  | 206 | 
72 | c1ccc(Cn2ccnc2)cc1 | 69 | 310 | 
73 | CCOC(=O)c1cc2ccccc2[nH]1 | 124 |  | 
74 | O=C(Nc1ccc(Cl)cc1)Nc1ccc(Cl)c(Cl)c1 | 256 |  | ready biodegradability: not readily biodegradable
75 | CCN(CC)CCOC(=O)c1ccc(N)cc1Cl.Cl | 177 |  | 

Row | SMILES | melting point [°C] | boiling point [°C] | other results
76 | FC(F)(F)CI |  | 54.5 | 
77 | Oc1ccccc1C=NCCN=Cc1ccccc1O | 128 |  | 
78 | CCOC(=O)NP(=O)(N1CC1)N1CC1 | 89 |  | 
79 | OCc1cccc(Cl)c1 |  | 237 | log10 BCF: 1.29
80 | CCC1(C)OC(=O)NC1=O (stereo unspecified) | 46 |  | 
81 | c1ccc([As](c2ccccc2)c2ccccc2)cc1 | 61 | 360 | log10 vapour pressure (mmHg): -4.3
82 | CC=C(C)CCC |  |  | log10 vapour pressure (mmHg): 1.7
83 | N#Cc1ccc(C#N)cc1 | 224 |  | ready biodegradability: not readily biodegradable; log10 BCF: 0.3; log10 biotransformation half-life (days): -0.81
84 | C=CC(CC)CC | -128 | 84.1 | log10 vapour pressure (mmHg): 1.91
85 | CC(C)=CCCC(C)CCO (stereo unspecified) |  |  | log10 vapour pressure (mmHg): -1.36
86 | Cl.NCCc1ccc(O)cc1 | 272 |  | 
87 | COc1ccc(-c2cc(=O)c3c(O)cc(O)cc3o2)cc1O | 254 |  | 
88 | Oc1ncnc2[nH]ncc12 | 350 |  | 
89 | Cc1c(CN2CCOC(c3ccccc3)C2C)c(=O)n(-c2ccccc2)n1C (stereo unspecified) | 150 |  | 
90 | CC1=NN(c2ccc([N+](=O)[O-])cc2)C(=O)C1[N+](=O)[O-] (stereo unspecified) | 116 |  | 
91 | OCCCCCCCCO | 63 |  | 
92 | O=C(O)c1cc([N+](=O)[O-])cc([N+](=O)[O-])c1 | 205 |  | log10 Koc (L/kg): 1.53; ready biodegradability: not readily biodegradable
93 | CCC(Br)(Br)CBr |  | 214 | 
94 | CCOP(=S)(Oc1ccc([N+](=O)[O-])cc1)c1ccccc1 (stereo unspecified) | 36 |  | log10 Koc (L/kg): 3.12; log10 vapour pressure (mmHg): -6.02; ready biodegradability: not readily biodegradable; log10 BCF: 2.97
95 | O=[N+]([O-])c1cccc2c([N+](=O)[O-])cccc12 | 219 |  | ready biodegradability: not readily biodegradable
96 | CC=CC=CC(=O)OCC |  | 196 | 
97 | C=C(C)C(=O)OCCN(C)C | -30 | 186 | 
98 | CC=CC=CCO | 30.5 |  | 
99 | C[C@]12CC[C@H]3C(=CCc4cc(O)ccc43)[C@@H]1CCC2=O | 239 |  | 
100 | ClCC(Cl)(Cl)CCl |  | 165 | log10 vapour pressure (mmHg): 0.484; ready biodegradability: not readily biodegradable; log10 BCF: 1.57; log10 biotransformation half-life (days): -0.28

Row | SMILES | melting point [°C] | boiling point [°C] | other results
101 | C#C[C@]1(O)CC[C@H]2[C@@H]3CCc4cc(OC5CCCC5)ccc4[C@H]3CC[C@@]21C | 108 |  | 
102 | C1=CCCCC1 | -104 | 82.9 | log10 Henry constant (atm·m³/mol): -1.34; log10 Koa: 2.83; log10 vapour pressure (mmHg): 1.95; ready biodegradability: not readily biodegradable
103 | CCC(=O)c1ccc2c(c1)N(CCCN(C)C)c1ccccc1S2 | 69.5 |  | 
104 | O=NN1CCCC1 |  | 214 | log10 vapour pressure (mmHg): -1.22
105 | O=C([O-])Cc1ccccc1Nc1c(Cl)cccc1Cl.[Na+] | 284 |  | 
106 | ClSC(Cl)(Cl)Cl |  | 148 | log10 vapour pressure (mmHg): 0.477
107 | CCCCCCCCCCCCCCC=O | 24.5 |  | 
108 | Cc1cc(C2CCCCC2)n(O)c(=O)c1 | 144 |  | 
109 | Cc1ccc(C)c(Br)c1 | 9 | 199 | 
110 | COc1ccc(N)c([N+](=O)[O-])c1 | 124 |  | ready biodegradability: not readily biodegradable; log10 BCF: 0.85; log10 biotransformation half-life (days): -0.87
111 | CC(=O)OCCN(C)C |  | 152 | 
112 | CNP(=O)(OC)Oc1ccc(C(C)(C)C)cc1Cl (stereo unspecified) | 60 |  | 
113 | O=[N+]([O-])c1cc(F)cc(F)c1 | 17 | 176 | 
114 | Nc1ccccc1[N+](=O)[O-] | 71 | 284 | log10 Henry constant (atm·m³/mol): -7.23; log10 vapour pressure (mmHg): -2.56; ready biodegradability: not readily biodegradable; log10 BCF: 1; log10 biotransformation half-life (days): -0.46
115 | CCNC(C)=O |  | 205 | ready biodegradability: readily biodegradable
116 | C=Cc1ccc(C)nc1 |  | 181 | log10 vapour pressure (mmHg): 0.0719
117 | N#CCCC(Br)(C#N)CBr (stereo unspecified) | 52 |  | 
118 | CC(=O)NS(=O)(=O)c1ccc(NC(=O)c2ccccc2C(=O)O)cc1 | 196 |  | 
119 | OCC(c1ccccc1)c1ccccc1 | 64.5 |  | 
120 | CC(C)NCC(O)c1ccc2ccccc2c1 (stereo unspecified) | 108 |  | 
121 | C=C(C(=O)O)C(F)(F)F | 51.5 |  | 
